From the kinase profiling compilation of Christmann-Franck et al. (2016)

Legend:
Test in all cases: KINOMEscan competition binding
Details in all cases: compound 10.0 µM
TGFBR2 (human) = TGFBR2 (human) (UniProt P37173)
STK16 (human) = STK16 (human) (UniProt O75716)
MAPK4 (human) = MAPK4 (human) (UniProt P31152)
STK17B (human) = STK17B (human) (UniProt O94768)
CAMK2G (human) = CAMK2G (human) (UniProt Q13555)
MYLK2 (human) = MYLK2 (human) (UniProt Q9H1R3)
MST1R (human) = MST1R (human) (UniProt Q04912)
DYRK1A (human) = DYRK1A (human) (UniProt Q13627)
[1] = molecular target: TYK2 JH2 pseudokinase (human) (UniProt P29597)
TYK2 JH2 pseudokinase (human), sequence (P29597 whole entry, looked up): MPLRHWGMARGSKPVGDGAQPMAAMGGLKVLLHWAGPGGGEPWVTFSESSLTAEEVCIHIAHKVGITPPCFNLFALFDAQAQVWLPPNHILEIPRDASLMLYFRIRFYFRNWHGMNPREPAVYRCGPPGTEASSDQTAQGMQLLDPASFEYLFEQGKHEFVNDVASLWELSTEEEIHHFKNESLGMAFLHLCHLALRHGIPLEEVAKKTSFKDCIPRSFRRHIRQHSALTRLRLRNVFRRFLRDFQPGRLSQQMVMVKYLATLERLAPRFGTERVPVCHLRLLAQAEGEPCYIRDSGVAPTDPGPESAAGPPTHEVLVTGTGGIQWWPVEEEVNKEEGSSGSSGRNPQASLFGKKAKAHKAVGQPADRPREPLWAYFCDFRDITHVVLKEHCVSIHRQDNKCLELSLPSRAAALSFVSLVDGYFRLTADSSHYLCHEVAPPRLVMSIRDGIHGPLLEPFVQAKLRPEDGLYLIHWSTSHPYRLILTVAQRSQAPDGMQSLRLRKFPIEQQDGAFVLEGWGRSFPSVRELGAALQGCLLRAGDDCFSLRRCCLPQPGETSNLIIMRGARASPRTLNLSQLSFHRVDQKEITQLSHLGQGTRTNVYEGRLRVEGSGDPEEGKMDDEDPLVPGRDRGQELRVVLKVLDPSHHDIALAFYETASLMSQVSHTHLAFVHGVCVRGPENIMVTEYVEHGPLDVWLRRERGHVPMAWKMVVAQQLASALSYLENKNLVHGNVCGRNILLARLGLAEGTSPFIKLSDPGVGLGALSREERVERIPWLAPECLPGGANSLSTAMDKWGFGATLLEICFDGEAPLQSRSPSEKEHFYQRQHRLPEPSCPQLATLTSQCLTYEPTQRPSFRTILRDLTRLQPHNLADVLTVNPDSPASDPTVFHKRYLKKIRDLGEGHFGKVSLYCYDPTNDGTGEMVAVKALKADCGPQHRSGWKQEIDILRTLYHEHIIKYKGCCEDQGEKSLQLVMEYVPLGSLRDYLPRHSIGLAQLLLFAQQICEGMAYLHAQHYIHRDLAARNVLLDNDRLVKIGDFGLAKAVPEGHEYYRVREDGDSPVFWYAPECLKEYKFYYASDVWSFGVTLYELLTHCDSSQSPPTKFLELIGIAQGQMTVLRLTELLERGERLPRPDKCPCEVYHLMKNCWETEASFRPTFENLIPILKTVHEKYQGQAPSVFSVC

EPHB6 (human) = EPHB6 (human) (UniProt O15197)
CSNK2A1 (human) = CSNK2A1 (human) (UniProt P68400)
MATK (human) = MATK (human) (UniProt P42679)
HIPK3 (human) = HIPK3 (human) (UniProt Q9H422)
MAP4K4 (human) = MAP4K4 (human) (UniProt O95819)
RIOK2 (human) = RIOK2 (human) (UniProt Q9BVS4)
CSNK2A2 (human) = CSNK2A2 (human) (UniProt P19784)
CSNK2A2 (human), sequence (P19784 whole entry, looked up): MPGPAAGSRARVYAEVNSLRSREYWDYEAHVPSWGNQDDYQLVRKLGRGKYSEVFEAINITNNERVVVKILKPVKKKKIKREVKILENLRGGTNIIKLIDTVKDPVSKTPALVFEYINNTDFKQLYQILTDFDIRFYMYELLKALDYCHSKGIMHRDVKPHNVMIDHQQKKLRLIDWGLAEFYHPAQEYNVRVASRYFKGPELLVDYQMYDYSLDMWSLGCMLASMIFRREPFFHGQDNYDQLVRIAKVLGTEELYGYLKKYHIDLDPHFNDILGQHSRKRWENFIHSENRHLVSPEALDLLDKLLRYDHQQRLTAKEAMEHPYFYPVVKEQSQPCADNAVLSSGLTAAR

PIP5K1A (human) = PIP5K1A (human) (UniProt Q99755)
PIP5K1A (human), sequence (Q99755 whole entry, looked up): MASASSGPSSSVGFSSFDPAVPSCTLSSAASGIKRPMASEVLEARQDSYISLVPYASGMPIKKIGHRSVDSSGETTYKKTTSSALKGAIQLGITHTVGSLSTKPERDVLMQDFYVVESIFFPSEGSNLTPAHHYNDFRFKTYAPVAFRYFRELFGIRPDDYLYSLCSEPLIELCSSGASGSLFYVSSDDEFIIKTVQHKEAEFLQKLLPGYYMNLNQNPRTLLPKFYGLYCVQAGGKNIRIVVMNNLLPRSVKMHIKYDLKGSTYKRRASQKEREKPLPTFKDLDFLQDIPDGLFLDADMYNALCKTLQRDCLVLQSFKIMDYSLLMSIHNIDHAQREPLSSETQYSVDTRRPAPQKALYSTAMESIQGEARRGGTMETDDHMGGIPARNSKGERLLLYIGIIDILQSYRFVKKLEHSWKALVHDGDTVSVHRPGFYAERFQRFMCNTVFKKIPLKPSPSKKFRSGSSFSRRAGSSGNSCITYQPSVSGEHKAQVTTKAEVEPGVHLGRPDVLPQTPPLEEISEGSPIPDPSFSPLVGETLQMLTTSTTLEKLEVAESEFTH

EPHA4 (human) = EPHA4 (human) (UniProt P54764)
DDR2 (human) = DDR2 (human) (UniProt Q16832)
[2] = molecular target: JAK2 JH1 catalytic (human) (UniProt O60674)
CLK2 (human) = CLK2 (human) (UniProt P49760)
GRK4 (human) = GRK4 (human) (UniProt P32298)
MAP2K6 (human) = MAP2K6 (human) (UniProt P52564)
MAP2K6 (human), sequence (P52564 whole entry, looked up): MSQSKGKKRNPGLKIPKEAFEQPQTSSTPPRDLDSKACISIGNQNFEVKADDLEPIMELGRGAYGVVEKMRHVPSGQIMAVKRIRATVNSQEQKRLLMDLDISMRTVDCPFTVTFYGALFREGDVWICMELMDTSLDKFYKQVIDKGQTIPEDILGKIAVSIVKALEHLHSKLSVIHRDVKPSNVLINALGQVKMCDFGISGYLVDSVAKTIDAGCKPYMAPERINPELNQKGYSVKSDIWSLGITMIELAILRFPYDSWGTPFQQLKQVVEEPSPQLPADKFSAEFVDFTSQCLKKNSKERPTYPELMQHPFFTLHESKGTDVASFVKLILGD

RPS6KA3 KD1 (human) = RPS6KA3 KD1 (human) (UniProt P51812)
RPS6KA3 KD1 (human), sequence (P51812 whole entry, looked up): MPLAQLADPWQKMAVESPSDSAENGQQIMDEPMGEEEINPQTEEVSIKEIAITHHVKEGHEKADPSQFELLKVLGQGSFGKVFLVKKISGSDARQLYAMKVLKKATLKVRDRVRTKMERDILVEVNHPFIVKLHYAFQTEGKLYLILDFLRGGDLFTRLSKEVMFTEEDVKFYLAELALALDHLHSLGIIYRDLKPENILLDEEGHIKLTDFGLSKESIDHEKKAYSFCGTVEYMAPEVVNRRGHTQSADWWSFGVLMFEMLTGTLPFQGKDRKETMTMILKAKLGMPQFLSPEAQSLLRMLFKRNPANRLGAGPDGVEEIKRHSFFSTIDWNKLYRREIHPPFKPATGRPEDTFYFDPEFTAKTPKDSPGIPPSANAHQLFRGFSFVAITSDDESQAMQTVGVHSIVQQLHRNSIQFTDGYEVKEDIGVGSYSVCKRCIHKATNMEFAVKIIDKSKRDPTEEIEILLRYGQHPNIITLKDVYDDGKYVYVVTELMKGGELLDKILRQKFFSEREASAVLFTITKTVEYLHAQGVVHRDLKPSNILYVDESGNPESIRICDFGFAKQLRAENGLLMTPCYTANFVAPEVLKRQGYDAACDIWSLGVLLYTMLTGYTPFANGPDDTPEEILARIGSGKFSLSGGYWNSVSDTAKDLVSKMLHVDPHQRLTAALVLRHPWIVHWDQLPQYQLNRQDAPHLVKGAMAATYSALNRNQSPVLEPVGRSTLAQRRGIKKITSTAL

WEE2 (human) = WEE2 (human) (UniProt P0C1S8)
WEE2 (human), sequence (P0C1S8 whole entry, looked up): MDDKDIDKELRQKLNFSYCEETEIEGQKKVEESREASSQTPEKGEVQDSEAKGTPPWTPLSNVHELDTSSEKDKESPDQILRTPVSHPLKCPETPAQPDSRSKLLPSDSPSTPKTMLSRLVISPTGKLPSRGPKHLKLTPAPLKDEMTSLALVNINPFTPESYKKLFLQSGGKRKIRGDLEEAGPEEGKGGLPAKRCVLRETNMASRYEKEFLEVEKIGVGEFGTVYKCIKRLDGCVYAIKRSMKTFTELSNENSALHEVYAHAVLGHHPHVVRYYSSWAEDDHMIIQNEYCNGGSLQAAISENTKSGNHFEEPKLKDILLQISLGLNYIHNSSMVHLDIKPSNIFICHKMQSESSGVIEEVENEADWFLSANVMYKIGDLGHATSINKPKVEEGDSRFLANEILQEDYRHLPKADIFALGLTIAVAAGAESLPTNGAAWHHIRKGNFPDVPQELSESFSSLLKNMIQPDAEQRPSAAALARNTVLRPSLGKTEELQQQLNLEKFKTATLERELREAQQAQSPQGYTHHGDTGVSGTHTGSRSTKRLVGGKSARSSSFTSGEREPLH

BRSK1 (human) = BRSK1 (human) (UniProt Q8TDC3)
MAPK14 (human) = MAPK14 (human) (UniProt Q16539)
SRC (human) = SRC (human) (UniProt P12931)
SRC (human), sequence (P12931 whole entry, looked up): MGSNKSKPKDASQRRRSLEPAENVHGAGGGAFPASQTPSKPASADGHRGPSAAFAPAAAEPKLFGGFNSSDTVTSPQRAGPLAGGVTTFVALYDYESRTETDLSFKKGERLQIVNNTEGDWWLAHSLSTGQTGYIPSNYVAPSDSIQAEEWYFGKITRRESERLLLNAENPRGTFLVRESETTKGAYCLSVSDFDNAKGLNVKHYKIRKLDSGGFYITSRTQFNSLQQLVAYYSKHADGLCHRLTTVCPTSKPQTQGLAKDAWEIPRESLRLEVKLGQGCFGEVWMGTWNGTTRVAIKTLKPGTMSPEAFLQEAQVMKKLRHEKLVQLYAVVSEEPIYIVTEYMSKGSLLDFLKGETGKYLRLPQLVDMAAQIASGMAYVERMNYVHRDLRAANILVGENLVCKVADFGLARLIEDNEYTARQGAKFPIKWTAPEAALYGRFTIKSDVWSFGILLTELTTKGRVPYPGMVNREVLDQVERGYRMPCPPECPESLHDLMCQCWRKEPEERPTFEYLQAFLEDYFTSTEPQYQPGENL

BMPR1A (human) = BMPR1A (human) (UniProt P36894)
CDC2L2 (human) = CDC2L2 (human) (UniProt Q9UQ88)
ROCK1 (human) = ROCK1 (human) (UniProt Q13464)
RIPK1 (human) = RIPK1 (human) (UniProt Q13546)
RPS6KA2 KD1 (human) = RPS6KA2 KD1 (human) (UniProt Q15349)
RPS6KA2 KD1 (human), sequence (Q15349 whole entry, looked up): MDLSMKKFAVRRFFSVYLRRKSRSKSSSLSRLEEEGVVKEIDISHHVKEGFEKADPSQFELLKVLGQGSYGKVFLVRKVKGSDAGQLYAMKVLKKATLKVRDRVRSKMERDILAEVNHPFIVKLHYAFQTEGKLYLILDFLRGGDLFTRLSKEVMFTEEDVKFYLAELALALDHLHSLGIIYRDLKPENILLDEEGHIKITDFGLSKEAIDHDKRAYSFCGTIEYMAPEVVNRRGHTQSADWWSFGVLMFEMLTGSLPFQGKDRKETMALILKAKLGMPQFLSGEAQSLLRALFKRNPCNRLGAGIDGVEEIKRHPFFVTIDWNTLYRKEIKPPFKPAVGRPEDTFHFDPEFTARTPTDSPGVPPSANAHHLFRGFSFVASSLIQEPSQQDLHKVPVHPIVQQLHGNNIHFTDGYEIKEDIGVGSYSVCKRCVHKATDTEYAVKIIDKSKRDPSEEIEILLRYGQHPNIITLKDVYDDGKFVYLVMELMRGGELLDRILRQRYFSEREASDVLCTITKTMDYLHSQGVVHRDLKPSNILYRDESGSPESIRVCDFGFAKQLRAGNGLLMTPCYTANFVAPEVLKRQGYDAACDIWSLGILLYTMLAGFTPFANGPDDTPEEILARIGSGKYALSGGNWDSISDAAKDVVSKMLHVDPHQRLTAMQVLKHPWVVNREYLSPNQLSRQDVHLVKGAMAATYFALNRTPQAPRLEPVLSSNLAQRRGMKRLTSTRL

[3] = system: EGFR (human), P00533 [L858R]
AURKA (human) = AURKA (human) (UniProt O14965)
CIT (human) = CIT (human) (UniProt O14578)
MAK (human) = MAK (human) (UniProt P20794)

SMILES: Cc1cn(-c2cc(C(=O)Nc3ccc(C)c(NC(=O)c4ccno4)c3)cc(C(F)(F)F)c2)cn1
- kinase still bound, per cent of control (TGFBR2 (human)): 100%
- kinase still bound, per cent of control (STK16 (human)): 100%
- kinase still bound, per cent of control (MAPK4 (human)): 100%
- kinase still bound, per cent of control (STK17B (human)): 100%
- kinase still bound, per cent of control (CAMK2G (human)): 100%
- kinase still bound, per cent of control (MYLK2 (human)): 100%
- kinase still bound, per cent of control (MST1R (human)): 100%
- kinase still bound, per cent of control (DYRK1A (human)): 100%
- kinase still bound, per cent of control [1]: 100%
- kinase still bound, per cent of control (EPHB6 (human)): 100%
- kinase still bound, per cent of control (CSNK2A1 (human)): 100%
- kinase still bound, per cent of control (MATK (human)): 100%
- kinase still bound, per cent of control (HIPK3 (human)): 100%
- kinase still bound, per cent of control (MAP4K4 (human)): 100%
- kinase still bound, per cent of control (RIOK2 (human)): 100%
- kinase still bound, per cent of control (CSNK2A2 (human)): 100%
- kinase still bound, per cent of control (PIP5K1A (human)): 100%
- kinase still bound, per cent of control (EPHA4 (human)): 4%
- kinase still bound, per cent of control (DDR2 (human)): 15%
- kinase still bound, per cent of control [2]: 100%
- kinase still bound, per cent of control (CLK2 (human)): 100%
- kinase still bound, per cent of control (GRK4 (human)): 100%
- kinase still bound, per cent of control (MAP2K6 (human)): 100%
- kinase still bound, per cent of control (RPS6KA3 KD1 (human)): 100%
- kinase still bound, per cent of control (WEE2 (human)): 100%
- kinase still bound, per cent of control (BRSK1 (human)): 100%
- kinase still bound, per cent of control (MAPK14 (human)): 0.3%
- kinase still bound, per cent of control (SRC (human)): 2.4%
- kinase still bound, per cent of control (BMPR1A (human)): 100%
- kinase still bound, per cent of control (CDC2L2 (human)): 100%
- kinase still bound, per cent of control (ROCK1 (human)): 100%
- kinase still bound, per cent of control (RIPK1 (human)): 100%
- kinase still bound, per cent of control (RPS6KA2 KD1 (human)): 100%
- kinase still bound, per cent of control [3]: 100%
- kinase still bound, per cent of control (AURKA (human)): 100%
- kinase still bound, per cent of control (CIT (human)): 31%
- kinase still bound, per cent of control (MAK (human)): 100%

SMILES: COc1cc(C)c(Sc2cnc(NC(=O)c3ccc(CNC(C)C(C)C)cc3)s2)cc1C(=O)N1CCN(C(C)=O)CC1 (configuration not stated)
- kinase still bound, per cent of control (TGFBR2 (human)): 100%
- kinase still bound, per cent of control (STK16 (human)): 100%
- kinase still bound, per cent of control (MAPK4 (human)): 100%
- kinase still bound, per cent of control (STK17B (human)): 100%
- kinase still bound, per cent of control (CAMK2G (human)): 100%
- kinase still bound, per cent of control (MYLK2 (human)): 100%
- kinase still bound, per cent of control (MST1R (human)): 100%
- kinase still bound, per cent of control [1]: 100%
- kinase still bound, per cent of control (CSNK2A1 (human)): 100%
- kinase still bound, per cent of control (MAP4K4 (human)): 100%
- kinase still bound, per cent of control (RIOK2 (human)): 100%
- kinase still bound, per cent of control (CSNK2A2 (human)): 100%
- kinase still bound, per cent of control (PIP5K1A (human)): 100%
- kinase still bound, per cent of control (EPHA4 (human)): 100%
- kinase still bound, per cent of control (DDR2 (human)): 100%
- kinase still bound, per cent of control [2]: 100%
- kinase still bound, per cent of control (CLK2 (human)): 3.7%
- kinase still bound, per cent of control (MAP2K6 (human)): 100%
- kinase still bound, per cent of control (RPS6KA3 KD1 (human)): 100%
- kinase still bound, per cent of control (WEE2 (human)): 3.6%
- kinase still bound, per cent of control (BRSK1 (human)): 100%
- kinase still bound, per cent of control (MAPK14 (human)): 100%
- kinase still bound, per cent of control (SRC (human)): 1.2%
- kinase still bound, per cent of control (BMPR1A (human)): 100%
- kinase still bound, per cent of control (CDC2L2 (human)): 100%
- kinase still bound, per cent of control (RIPK1 (human)): 100%
- kinase still bound, per cent of control (RPS6KA2 KD1 (human)): 100%
- kinase still bound, per cent of control [3]: 100%
- kinase still bound, per cent of control (AURKA (human)): 100%
- kinase still bound, per cent of control (CIT (human)): 100%

SMILES: COc1ccc(N(C(=O)Oc2cc(C(=O)Nc3cccc(C(F)(F)F)c3)ccc2C)c2ccnc(Nc3ccc(N4CCN(C)CC4)cc3)n2)c(OC)c1
- kinase still bound, per cent of control (TGFBR2 (human)): 100%
- kinase still bound, per cent of control (STK16 (human)): 100%
- kinase still bound, per cent of control (MAPK4 (human)): 100%
- kinase still bound, per cent of control (STK17B (human)): 100%
- kinase still bound, per cent of control (CAMK2G (human)): 100%
- kinase still bound, per cent of control (MYLK2 (human)): 100%
- kinase still bound, per cent of control (CSNK2A1 (human)): 100%
- kinase still bound, per cent of control (MAP4K4 (human)): 7%
- kinase still bound, per cent of control (CSNK2A2 (human)): 100%
- kinase still bound, per cent of control (PIP5K1A (human)): 100%
- kinase still bound, per cent of control (EPHA4 (human)): 2.4%
- kinase still bound, per cent of control (DDR2 (human)): 100%
- kinase still bound, per cent of control [2]: 2.3%
- kinase still bound, per cent of control (CLK2 (human)): 100%
- kinase still bound, per cent of control (MAP2K6 (human)): 100%
- kinase still bound, per cent of control (RPS6KA3 KD1 (human)): 100%
- kinase still bound, per cent of control (BRSK1 (human)): 100%
- kinase still bound, per cent of control (MAPK14 (human)): 14%
- kinase still bound, per cent of control (SRC (human)): 0.15%
- kinase still bound, per cent of control (CDC2L2 (human)): 8%
- kinase still bound, per cent of control (RIPK1 (human)): 100%
- kinase still bound, per cent of control (RPS6KA2 KD1 (human)): 100%
- kinase still bound, per cent of control [3]: 2.4%
- kinase still bound, per cent of control (AURKA (human)): 100%
- kinase still bound, per cent of control (CIT (human)): 0.7%

SMILES: COc1cc(N2CCC(C(N)=O)CC2)ccc1Nc1nc(N)c(Cl)c(Nc2ccccc2S(=O)(=O)C(C)C)n1
- kinase still bound, per cent of control (TGFBR2 (human)): 100%
- kinase still bound, per cent of control (STK16 (human)): 100%
- kinase still bound, per cent of control (MAPK4 (human)): 100%
- kinase still bound, per cent of control (STK17B (human)): 100%
- kinase still bound, per cent of control (CAMK2G (human)): 100%
- kinase still bound, per cent of control (MYLK2 (human)): 100%
- kinase still bound, per cent of control (MST1R (human)): 100%
- kinase still bound, per cent of control [1]: 100%
- kinase still bound, per cent of control (CSNK2A1 (human)): 100%
- kinase still bound, per cent of control (MAP4K4 (human)): 100%
- kinase still bound, per cent of control (RIOK2 (human)): 100%
- kinase still bound, per cent of control (CSNK2A2 (human)): 100%
- kinase still bound, per cent of control (PIP5K1A (human)): 100%
- kinase still bound, per cent of control (EPHA4 (human)): 100%
- kinase still bound, per cent of control (DDR2 (human)): 100%
- kinase still bound, per cent of control [2]: 100%
- kinase still bound, per cent of control (CLK2 (human)): 4.6%
- kinase still bound, per cent of control (MAP2K6 (human)): 100%
- kinase still bound, per cent of control (RPS6KA3 KD1 (human)): 100%
- kinase still bound, per cent of control (WEE2 (human)): 100%
- kinase still bound, per cent of control (BRSK1 (human)): 100%
- kinase still bound, per cent of control (MAPK14 (human)): 100%
- kinase still bound, per cent of control (SRC (human)): 23%
- kinase still bound, per cent of control (BMPR1A (human)): 100%
- kinase still bound, per cent of control (CDC2L2 (human)): 100%
- kinase still bound, per cent of control (RIPK1 (human)): 100%
- kinase still bound, per cent of control (RPS6KA2 KD1 (human)): 100%
- kinase still bound, per cent of control [3]: 0.3%
- kinase still bound, per cent of control (AURKA (human)): 100%
- kinase still bound, per cent of control (CIT (human)): 100%
